The results in this text go back to PubChem BioAssay AID624129 (Sanford-Burnham Center for Chemical Genomics, 2012).

SMILES strings stand for the structures. pIC50: −log10 of the molar value. Activity calls are given as the source filed them. How the calls were made is not given here.

Holding throughout (assay): potency against CXCR6 with APJ panel – cell-based, beta-arrestin, DiscoveRx, uHTS hits, dose response (AID 624129)
The target of experiment [1] is Apelin receptor (Homo sapiens) (UniProt P35414). The settings on record: CXCR6 beta-arrestin (DiscoveRx) antagonist cell assay, APJ.
Experiment [2] concerns the target Beta-galactosidase (Escherichia coli) (UniProt Q8VNN2). The settings on record: CXCR6 beta-arrestin (DiscoveRx) antagonist cell assay, b-galactosidase; for IC50: dose range 1; for pIC50: dose range 1, mean IC50 across replicates.
The target in experiment [3] is C-C chemokine receptor type 6 (Homo sapiens) (UniProt P51684). The settings on record: CXCR6 beta-arrestin (DiscoveRx) antagonist cell assay.
Experiment [4] deals with C-X-C chemokine receptor type 6 (Homo sapiens) (UniProt O00574). The settings on record: CXCR6 beta-arrestin (DiscoveRx) antagonist cell assay; for inhibition: CXCR6, run 1, dose range 2, at 80 µM (top of the series).
The mark [5] stands for this setting: dose range 1, mean IC50 across replicates.
[6] abbreviates: CCR6, dose range 1, mean IC50 across replicates.
Setting [7] is: CXCR6, dose range 1, mean IC50 across replicates.

Beta-galactosidase (Escherichia coli), sequence (Q8VNN2 whole entry, looked up): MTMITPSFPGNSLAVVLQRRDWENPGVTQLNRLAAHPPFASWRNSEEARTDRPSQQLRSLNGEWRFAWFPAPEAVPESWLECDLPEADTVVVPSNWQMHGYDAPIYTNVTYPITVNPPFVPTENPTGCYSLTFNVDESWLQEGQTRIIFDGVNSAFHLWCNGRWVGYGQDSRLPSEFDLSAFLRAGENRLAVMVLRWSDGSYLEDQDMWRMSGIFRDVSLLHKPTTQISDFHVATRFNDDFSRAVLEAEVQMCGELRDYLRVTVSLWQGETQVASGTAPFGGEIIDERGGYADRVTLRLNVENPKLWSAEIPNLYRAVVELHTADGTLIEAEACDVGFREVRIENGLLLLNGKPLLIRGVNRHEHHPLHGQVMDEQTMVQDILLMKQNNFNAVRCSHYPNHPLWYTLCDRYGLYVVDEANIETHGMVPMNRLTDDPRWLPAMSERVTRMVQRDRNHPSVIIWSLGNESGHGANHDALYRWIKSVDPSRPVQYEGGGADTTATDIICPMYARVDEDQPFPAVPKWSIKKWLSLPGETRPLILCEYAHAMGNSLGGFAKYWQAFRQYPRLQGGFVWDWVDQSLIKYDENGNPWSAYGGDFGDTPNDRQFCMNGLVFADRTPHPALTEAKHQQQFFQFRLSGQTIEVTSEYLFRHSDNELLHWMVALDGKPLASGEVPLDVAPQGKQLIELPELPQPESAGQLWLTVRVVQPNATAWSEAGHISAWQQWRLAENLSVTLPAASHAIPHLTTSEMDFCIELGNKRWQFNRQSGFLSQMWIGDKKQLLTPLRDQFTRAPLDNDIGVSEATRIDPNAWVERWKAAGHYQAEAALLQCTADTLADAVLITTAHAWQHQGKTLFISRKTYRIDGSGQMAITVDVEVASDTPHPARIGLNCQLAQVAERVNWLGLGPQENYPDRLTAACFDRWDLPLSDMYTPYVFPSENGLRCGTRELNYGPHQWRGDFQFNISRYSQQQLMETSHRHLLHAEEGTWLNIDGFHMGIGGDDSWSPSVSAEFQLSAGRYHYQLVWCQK
C-X-C chemokine receptor type 6 (Homo sapiens), sequence (O00574 whole entry, looked up): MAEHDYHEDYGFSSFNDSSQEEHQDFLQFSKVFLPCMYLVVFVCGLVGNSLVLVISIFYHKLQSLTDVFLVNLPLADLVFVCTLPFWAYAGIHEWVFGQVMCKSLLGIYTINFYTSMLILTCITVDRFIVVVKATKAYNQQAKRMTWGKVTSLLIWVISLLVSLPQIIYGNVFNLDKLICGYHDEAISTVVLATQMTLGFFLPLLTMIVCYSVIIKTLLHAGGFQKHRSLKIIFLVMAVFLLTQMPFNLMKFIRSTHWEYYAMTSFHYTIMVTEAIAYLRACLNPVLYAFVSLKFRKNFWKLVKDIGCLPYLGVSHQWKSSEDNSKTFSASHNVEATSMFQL

One may read the pIC50 as the IC50 on a negative log10 scale, so that one unit is a factor of ten. Usually IC50 stands for the midpoint of a concentration-inhibition curve. In the case of `Cc1ccc2c(c1)C1CN(C)CCC1N2C(=S)NC(=O)c1ccc(Br)cc1` (stereo not drawn), the negative logarithm of the IC50 (pIC50) in experiment [1] (dose range 1) was 4.89; in experiment [1] (setting [5]) it was 4.92; in experiment [1] (run 2, dose range 1), 4.96; in experiment [1] (run 3, dose range 1), 4.91; in experiment [2], < 4.10; in experiment [3] (CCR6, dose range 1), 4.90. The pIC50 is 4.85 in experiment [3] (setting [6]); 4.81 in experiment [3] (CCR6, run 2, dose range 1); 4.90 in experiment [4] (setting [7]); 5.16 in experiment [4] (CXCR6, run 1, dose range 2); 4.74 in experiment [4] (CXCR6, run 2, dose range 1); 4.95 in experiment [4] (CXCR6, run 2, dose range 2). In addition, the IC50 in experiment [2] was > 80 µM (inactive). Besides, the IC50 result in experiment [4] (CXCR6, dose range 1) is “inactive”.
Take `CCC1CCCCN1S(=O)(=O)c1ccc(NC(=O)c2nc(S(C)(=O)=O)ncc2Cl)cc1` (stereo not drawn): the pIC50 was 5.15 in experiment [1] (dose range 1); 5.18 in experiment [1] (setting [5]); 5.14 in experiment [1] (run 2, dose range 1); 5.23 in experiment [1] (run 3, dose range 1); < 4.10 in experiment [2]; 5.28 in experiment [3] (CCR6, dose range 1). Further, the pIC50 in experiment [3] (setting [6]) is 5.26; in experiment [3] (CCR6, run 2, dose range 1), 5.23; in experiment [4] (CXCR6, dose range 1) it was 5.13; in experiment [4] (setting [7]), 5.05; in experiment [4] (CXCR6, run 1, dose range 2), 4.98; in experiment [4] (CXCR6, run 2, dose range 1), 5.14. In experiment [4] (CXCR6, run 2, dose range 2), this molecule showed a pIC50 of 4.96. Besides, in experiment [2], the IC50 is > 80 µM (inactive).
As to `C=C1C(=O)OC2C1CCC(C)=C1C(=O)C3OC3(C)C12` (stereo not drawn), the negative-log IC50 (pIC50) in experiment [1] (dose range 1) is 4.96; in experiment [1] (setting [5]), 4.96; in experiment [1] (run 2, dose range 1), 4.95; in experiment [1] (run 3, dose range 1), 4.97; in experiment [2], < 4.10; in experiment [3] (CCR6, dose range 1) it was 5.19. The pIC50 in experiment [3] (setting [6]) is 5.16; in experiment [3] (CCR6, run 2, dose range 1), 5.14; in experiment [4] (CXCR6, dose range 1) it was 4.90; in experiment [4] (setting [7]), 4.99; in experiment [4] (CXCR6, run 1, dose range 2), 5.00; in experiment [4] (CXCR6, run 2, dose range 1), 5.01. The negative logarithm of the IC50 (pIC50) in experiment [4] (CXCR6, run 2, dose range 2) is 5.05. For the same molecule, in experiment [2], the IC50 was > 80 µM (inactive).
By inhibition is commonly meant the drop in the measured response relative to a control, in per cent. In the case of `CC(=O)OCCCNc1cc(Sc2ccc(C)cc2)c2nonc2c1[N+](=O)[O-]`, the pIC50 was < 4.10 in experiment [1] (setting [5]); < 4.10 in experiment [1] (run 2, dose range 1); < 4.10 in experiment [1] (run 3, dose range 1); < 4.10 in experiment [2]; < 4.10 in experiment [3] (setting [6]); < 4.10 in experiment [3] (CCR6, run 2, dose range 1). The negative logarithm of the IC50 (pIC50) in experiment [4] (setting [7]) was < 4.10; in experiment [4] (CXCR6, run 2, dose range 1) it was < 4.10. For the same molecule, the IC50 is > 80 µM (inactive) in experiment [2] and > 80 µM (inactive) in experiment [4] (CXCR6, dose range 1). The inhibition in experiment [4] is -24.2%.
In the case of `CCC(=O)OCCNc1cc(Sc2nccn2C)c2nonc2c1[N+](=O)[O-]`, the pIC50 in experiment [1] (dose range 1) was 5.13; in experiment [1] (setting [5]), 5.22; in experiment [1] (run 2, dose range 1), 5.33; in experiment [1] (run 3, dose range 1) it was 5.22; in experiment [2], < 4.10; in experiment [3] (CCR6, dose range 1), 5.46. The pIC50 is 5.41 in experiment [3] (setting [6]); 5.37 in experiment [3] (CCR6, run 2, dose range 1); 5.37 in experiment [4] (CXCR6, dose range 1); 5.33 in experiment [4] (setting [7]); 5.30 in experiment [4] (CXCR6, run 1, dose range 2); 5.32 in experiment [4] (CXCR6, run 2, dose range 1). In experiment [4] (CXCR6, run 2, dose range 2), the negative logarithm of the IC50 (pIC50) was 5.33. Moreover, in experiment [2], the IC50 was > 80 µM (inactive).
For the molecule `C/C(=N\NC(=O)C(C)Oc1ccc([N+](=O)[O-])cc1)c1ccccn1` (stereo not drawn), the negative logarithm of the IC50 (pIC50) in experiment [1] (dose range 1) is 5.46; in experiment [1] (setting [5]) it was 5.09; in experiment [1] (run 2, dose range 1), 5.47; in experiment [1] (run 3, dose range 1), 4.76; in experiment [2], < 4.10; in experiment [3] (CCR6, dose range 1), 5.58. Further, the pIC50 in experiment [3] (setting [6]) is 5.51; in experiment [3] (CCR6, run 2, dose range 1), 5.44; in experiment [4] (CXCR6, dose range 1), 5.21; in experiment [4] (setting [7]) it was 5.41; in experiment [4] (CXCR6, run 1, dose range 2), 5.56; in experiment [4] (CXCR6, run 2, dose range 1), 5.35. Besides, the negative logarithm of the IC50 (pIC50) in experiment [4] (CXCR6, run 2, dose range 2) is 5.65. For the same molecule, the IC50 in experiment [2] was > 80 µM (inactive).
With `CC(=NNc1nc2ccccc2s1)c1ncccn1`, the pIC50 was 4.77 in experiment [1] (dose range 1); 4.76 in experiment [1] (setting [5]); 4.69 in experiment [1] (run 2, dose range 1); 4.83 in experiment [1] (run 3, dose range 1); < 4.10 in experiment [2]; 5.12 in experiment [3] (CCR6, dose range 1). Further, the negative-log IC50 (pIC50) in experiment [3] (setting [6]) is 5.05; in experiment [3] (CCR6, run 2, dose range 1) it was 4.99; in experiment [4] (setting [7]), 4.95; in experiment [4] (CXCR6, run 2, dose range 1), 4.98. The IC50 in experiment [2] is > 80 µM (inactive). Besides, the IC50 result in experiment [4] (CXCR6, dose range 1) is “inactive”. For the same molecule, in experiment [4], the inhibition was determined as 125%.
With `COc1ccc(NC(=O)/C(Cl)=C(/Cl)S(=O)Cc2ccccc2)cn1` (stereo not drawn), the negative logarithm of the IC50 (pIC50) in experiment [1] (dose range 1) is 4.97; in experiment [1] (setting [5]), 4.65; in experiment [1] (run 2, dose range 1) it was 5.11; in experiment [1] (run 3, dose range 1) it was 4.31; in experiment [2], < 4.10; in experiment [3] (CCR6, dose range 1) it was 5.26. The pIC50 in experiment [3] (setting [6]) was 5.30; in experiment [3] (CCR6, run 2, dose range 1) it was 5.33; in experiment [4] (CXCR6, dose range 1) it was 5.21; in experiment [4] (setting [7]) it was 5.18; in experiment [4] (CXCR6, run 1, dose range 2) it was 5.17; in experiment [4] (CXCR6, run 2, dose range 1) it was 5.21. In addition, in experiment [4] (CXCR6, run 2, dose range 2), the negative logarithm of the IC50 (pIC50) was 5.15. The IC50 in experiment [2] is > 80 µM (inactive).
